Measured values: patent US20110059186A1, “CANCER STEM CELL-TARGETED AND DRUG RESISTANT CANCER THERAPY” (KOMINOX USA, INC., priority 2009, published 2011)
pIC50: −log10 of the molar value. Read-outs that look alike come from different tables or passages of the source.

Assays:
Assay type in all cases: cell-based, human
DU145 wt cells = experiment: MTT proliferation assay, DU145 wt
Procedure: (§1) Cell Lines: DU145 wt, DU145/Pac200 and DU145/Doc50 cells were provided by Dr. Hussain, UMGCC, University of Maryland. The cell lines were cultured as recommended; in 1:1 DMEM/F12 media (Invitrogen) supplemented with 5% FBS, 1% antibiotics and grown under standard conditions at 37° C. and 5% CO2. Paclitaxel and docetaxel resistant clones were kept under selection pressure of the drugs.
(§2) MTT Proliferation Assay: Exponentially growing cells were harvested and plated in 96-well plates (1,500/well for DU145 wt, and 2,000-3,000/well for DU145/Pac200 and DU145/Doc50). Drugs being tested were added at concentrations ranging from 0.01 μM to 100 μM to asses their growth inhibitory potential. After 5 days of continuous exposure to drug, the vital dye 3-(4,5-dimethylthiazol-2-yl)-2,5-diphenyltetrazoliumbromide (MTT) was added to the plates. The conversion of MTT to purple formazan by viable cells was measured using a Synergy2 plate reader at 550 nm and Gen5 software. Growth curves were generated using Microsoft Excel and growth inhibitory concentration 50 (IC50) and 100% were determined.

[1] = system: DU145/Pac200 (paclitaxel resistant) cells; experiment: MTT proliferation assay, DU145/Pac200
Procedure: as §1, §2

[2] = system: DU145/Doc50 (docetaxel resistant) cells; experiment: MTT proliferation assay, DU145/Doc50
Procedure: as §1, §2

[3] = system: side population of DU145 cells
[4] = system: side population of DU145/Pac200 cells
[5] = system: side population of LAPC-4 cells
Procedure: (§3) Three samples were analyzed each time. Of the samples one was treated with DCV only, another was treated with DCV and 50 μM Verapamil (PgP inhibitor), and the last was treated with DCV and 10 μM Fumitremorgin C (FTC, BCRP inhibitor). The samples were then read and analyzed using flow cytometry.
(§4) Flow Cytometry: Samples were read on a BDLSR II flow cytometer. […] Detectors at 450/50 (blue) and 680/30 (red) intercepted the emitted wavelength and plotted the data on the scatter plot accordingly. CD44 and Pgp staining was performed using PE (Pgp) or APC (CD44) labeled antibodies and their isotype controls following routine procedures for epitope labeling.
(§5) Each of the prostate cell lines was analyzed for the existence of a cancer stem-like cell fraction using DCV side population analysis. […] The occurrence of a SP is based on the expression of drug efflux pumps such as P-glycoprotein or BCRP, which are responsible for preventing standard cytotoxic therapy from working. […] Because the hormone therapies, e.g., androgen synthesis inhibitors, are not substrates of drug efflux pumps, these findings are not surprising.

[6] = system: side population of DU145/Doc50 cells
Procedure: as §3, §4, §5

[7] = system: side population of LnCaP cells
Procedure: as §3, §4, §5

[8] = system: side population of LAPC-4/CSS100 cells
Procedure: as §3, §4, §5

[9] = system: side population of LnCaP/C81 cells
Procedure: as §3, §4, §5

[10] = system: Pgp positive cell population of taxane-resistant prostate cancer cell lines; experiment: Pgp surface expression by flow cytometry; conditions: treatment at IC50 for 72 hours
Procedure: Flow Cytometry: Samples were read on a BDLSR II flow cytometer. A […] violet laser excited the DCV dye producing varying wavelengths based on cell differentiation. Detectors at 450/50 (blue) and 680/30 (red) intercepted the emitted wavelength and plotted the data on the scatter plot accordingly. CD44 and Pgp staining was performed using PE (Pgp) or APC (CD44) labeled antibodies and their isotype controls following routine procedures for epitope labeling.
The drug efflux pump (Pgp) is functionally expressed (at the membrane) in the majority of cells in the taxane-resistant prostate cancer cell lines, which is expected since the SP of those cell lines was suppressible with the drug efflux pump inhibitor verapamil. Treatment with KML001 at IC50 for 72 hours reduced the Pgp positive cell population, which corroborates the results of the clonogenic and SP assay.

LAPC-4/CSS100 cells = conditions: read-out: IC50 KML001
hTERT transcript = system: hTERT transcript
[11] = system: DU145/Pac200 cancer stem cell population; conditions: read-out: IC50, colony forming capability
LnCaP cells = conditions: read-out: IC50 KML001
[12] = system: prostate cancer cell lines (taxane-resistant, androgen resistant and parental); experiment: MTT assay across the panel of prostate cancer cell lines
Procedure: as §2
Taxane resistant cell lines DU145/Pac200 (highly pacitaxel resistant) and DU145/Doc50 (highly docetaxel resistant) together with the parental cell line DU145 as well as the androgen resistant cancer cell lines (LNCaP/C81 and LAPC-4/CSS100) and their corresponding hormone responsive parental cell lines (LNCaP and LAPC-4) were tested for their response to sodium meta arsenite.
The cancer cell lines that were resistant to paclixel and docetaxel were tested using a well-established tumor clonigenic stem cell assay for their response to KML001. (FIG. 6) The assay allows only the cancer stem cell population to grow in a soft agar matrix owing to their self-renewal capability. […]

[13] = system: DU145 cancer stem cell population; conditions: read-out: IC50, colony forming capability
LAPC-4 cells = conditions: read-out: IC50 KML001
LnCaP/C81 cells = conditions: read-out: IC50 KML001
[14] = DU145/Pac200 relative to DU145 wt
[15] = Du145 Doc50 relative to DU145 wt

Q: With `CC(=O)O[C@@]12CO[C@@H]1C[C@H](O)[C@@]1(C)C(=O)[C@H](O)C3=C(C)[C@@H](OC(=O)[C@H](O)[C@@H](NC(=O)OC(C)(C)C)c4ccccc4)C[C@@](O)([C@@H](OC(=O)c4ccccc4)[C@H]21)C3(C)C` [Docetaxel] as the molecule, how does the “Docetaxel Resistance (fold)” value (DU145 wt cells; DU145 wt (reference line)) read?
A: 1 fold

Q: And the pIC50 (DU145 wt cells; Homo sapiens, DU-145, DU145 wt, read-out: Docetaxel IC50)?
A: 9.30

Q: And the “Docetaxel Resistance (fold)” value [1, 14]?
A: 400 fold

Q: And the pIC50 ([1]; Homo sapiens, DU-145, DU145/Pac200, read-out: Docetaxel IC50)?
A: 6.70

Q: What about the “Docetaxel Resistance (fold)” value [2, 15] of the same molecule?
A: 2000 fold

Q: What about the pIC50 ([2]; Homo sapiens, DU-145, Du145 Doc50, read-out: Docetaxel IC50) of the same molecule?
A: 6.00

Q: What does the source list for `COc1ccc2c3c([nH]c2c1)[C@H](C=C(C)C)N1C(=O)[C@@H]2CCCN2C(=O)[C@@H]1C3` [FTC, Fumitremorgin C]?
A: SP % with FTC ([3]; DU145, DCV with 10 μM FTC, SP 1.04 % without inhibitor): 0.06%; SP % with FTC ([4]; DU145/Pac200, DCV with 10 μM FTC, SP 55 % without inhibitor): 56.5%; inhibition of SP by efflux pump inhibitor ([4]; Pac resistant DU145 cells): not; suppression of SP by efflux pump inhibitor ([5]; LAPC-4): suppressible; SP % with FTC ([5]; LAPC-4, DCV with 10 μM FTC, SP 1.54 % without inhibitor): 2.24%; SP % with FTC ([6]; DU145/Doc50, DCV with 10 μM FTC, SP 40.3 % without inhibitor): 18.35%; inhibition of SP by efflux pump inhibitor ([6]; Doc resistant DU145 cells): not; suppression of SP by efflux pump inhibitor ([7]; LnCaP parental line): suppressible; SP % with FTC ([7]; LnCaP, DCV with 10 μM FTC, SP 0.66 % without inhibitor): 0.04%; SP % with FTC ([8]; LAPC-4/CSS100, DCV with 10 μM FTC, SP 0.36 % without inhibitor): 0.30%; suppression of SP by efflux pump inhibitor ([8]; hormone resistant derivative of LAPC-4): suppressible; suppression of SP by efflux pump inhibitor ([9]; LnCaP/C81): suppressible; SP % with FTC ([9]; LnCaP/C81, DCV with 10 μM FTC, SP 0.16 % without inhibitor): 0.11%

Q: For `O=[As][O-].[Na+]` [KML001, sodium meta arsenite], which “Pgp positive cell population” value [10] is on record?
A: reduced

Q: What about the pIC50 (LAPC-4/CSS100 cells) of the same molecule?
A: 5.52

Q: And the “effect on mature (non-SP) cells after pretreatment” value [3]?
A: also eradicated

Q: And the “effect on side population (SP) after pretreatment” value [3]?
A: drastically reducing the SP

Q: And the “effect on mature (non-SP) cells after pretreatment” value [4]?
A: also eradicated

Q: What about the “effect on side population (SP) after pretreatment” value [4] of the same molecule?
A: drastically reducing the SP

Q: What about the “hTERT transcript level” value (hTERT transcript) of the same molecule?
A: significantly decreases

Q: And the pIC50 [11]?
A: 5.22

Q: What about the pIC50 (LnCaP cells) of the same molecule?
A: 5.40

Q: And the “sensitivity of resistant versus parental cell lines” value ([12]; growth curves from standard MTT assays)?
A: equally effective

Q: And the pIC50 ([12]; taxane-resistant, androgen resistant and hormone responsive parental lines, read-out: IC50's across all prostate cancer cell lines)?
A: 5.22 to 6.00

Q: What about the IC100 concentration (DU145 wt cells) of the same molecule?
A: 13 µM

Q: What about the “growth inhibition” value (DU145 wt cells) of the same molecule?
A: marked inhibition of growth

Q: And the pIC50 (DU145 wt cells; read-out: IC50 KML001)?
A: 5.40

Q: And the “growth inhibition” value ([1]; DU145/Pac200, MTT)?
A: marked inhibition of growth

Q: What about the pIC50 ([1]; DU145/Pac200, MTT, 5 days continuous exposure, read-out: IC50 KML001) of the same molecule?
A: 5.22

Q: What about the pIC50 [13] of the same molecule?
A: 5.22

Q: What about the “growth inhibition” value ([2]; DU145/Doc50, MTT) of the same molecule?
A: marked inhibition of growth

Q: And the pIC50 ([2]; DU145/Doc50, MTT, 5 days continuous exposure, read-out: IC50 KML001)?
A: 5.30

Q: And the pIC50 (LAPC-4 cells)?
A: 5.40

Q: What about the pIC50 (LnCaP/C81 cells) of the same molecule?
A: 6.00

Q: How did the “Paclitaxel Resistance (fold)” value (DU145 wt cells; DU145 wt (reference line)) turn out when `CC(=O)O[C@H]1C(=O)[C@@]2(C)[C@H]([C@H](OC(=O)c3ccccc3)[C@]3(O)C[C@H](OC(=O)[C@H](O)[C@@H](NC(=O)c4ccccc4)c4ccccc4)C(C)=C1C3(C)C)[C@]1(OC(C)=O)CO[C@@H]1C[C@@H]2O` [Paclitaxel] was run?
A: 1 fold

Q: What about the pIC50 (DU145 wt cells; Homo sapiens, DU-145, DU145 wt, read-out: Paclitaxel IC50) of the same molecule?
A: 8.60

Q: What about the “Paclitaxel Resistance (fold)” value [1, 14] of the same molecule?
A: 140 fold

Q: And the pIC50 ([1]; Homo sapiens, DU-145, DU145/Pac200, read-out: Paclitaxel IC50)?
A: 6.46

Q: And the “Paclitaxel Resistance (fold)” value [2, 15]?
A: 400 fold

Q: What about the pIC50 ([2]; Homo sapiens, DU-145, Du145 Doc50, read-out: Paclitaxel IC50) of the same molecule?
A: 6.00

Q: With `COc1ccc(CCN(C)CCCC(C#N)(c2ccc(OC)c(OC)c2)C(C)C)cc1OC` (stereo not shown) [Verapamil] as the molecule, how does the “SP % with Verapamil” value ([3]; DU145, DCV with 50 μM Verapamil, SP 1.04 % without inhibitor) read?
A: 0.16%

Q: What about the “SP % with Verapamil” value [4] of the same molecule?
A: 0.07%

Q: What about the “SP % with Verapamil” value [5] of the same molecule?
A: 1.63%

Q: What about the “SP % with Verapamil” value [6] of the same molecule?
A: 1.35%

Q: And the “SP % with Verapamil” value [7]?
A: 0.12%

Q: What about the “SP % with Verapamil” value [8] of the same molecule?
A: 0.19%

Q: And the “SP % with Verapamil” value [9]?
A: 0.07%

Q: What does the source list for `N.N.[Cl][Pt][Cl]` [cisplatin]?
A: pIC50 (DU145 wt cells; DU145 parental, standard MTT, read-out: IC50 of cisplatin): 5.40; pIC50 ([1]; DU145/Pac200, standard MTT, read-out: IC50 of cisplatin): 5.52
